Source: ChEMBL document CHEMBL5038622, “p-Terphenyls as Anti-HSV-1/2 Agents from a Deep-Sea-Derived Penicillium sp” (J Nat Prod, 2021)
Active and inactive are the calls of the source. The rule behind the calls is not given here.

What was measured:
Human alphaherpesvirus 2 [1] = test: Antiviral activity against HSV-2 infected in African green monkey Vero cells assessed as inhibition of viral replication incubated for 3 days by MTT assay; format: functional, organism-based; details: Human alphaherpesvirus 2, Vero, 72 h
Human alphaherpesvirus 1 [2] = test: Antiviral activity against HSV-1 infected in African green monkey Vero cells assessed as inhibition of viral replication incubated for 3 days by MTT assay; format: functional, organism-based; details: Human alphaherpesvirus 1, Vero, 72 h
Human alphaherpesvirus 1 [3] = test: Antiviral activity against HSV-1 infected in African green monkey Vero cells assessed as reduction in virus-induced cytopathic effect measured after 48 hrs by MTT assay; format: functional, organism-based; details: dose 0.63-10 µM
[4] = target: T1, Pancreatic triacylglycerol lipase (Homo sapiens) (UniProt P16233); test: Inhibition of pancreatic lipase (unknown origin) at 100 uM
T1 sequence (whole entry): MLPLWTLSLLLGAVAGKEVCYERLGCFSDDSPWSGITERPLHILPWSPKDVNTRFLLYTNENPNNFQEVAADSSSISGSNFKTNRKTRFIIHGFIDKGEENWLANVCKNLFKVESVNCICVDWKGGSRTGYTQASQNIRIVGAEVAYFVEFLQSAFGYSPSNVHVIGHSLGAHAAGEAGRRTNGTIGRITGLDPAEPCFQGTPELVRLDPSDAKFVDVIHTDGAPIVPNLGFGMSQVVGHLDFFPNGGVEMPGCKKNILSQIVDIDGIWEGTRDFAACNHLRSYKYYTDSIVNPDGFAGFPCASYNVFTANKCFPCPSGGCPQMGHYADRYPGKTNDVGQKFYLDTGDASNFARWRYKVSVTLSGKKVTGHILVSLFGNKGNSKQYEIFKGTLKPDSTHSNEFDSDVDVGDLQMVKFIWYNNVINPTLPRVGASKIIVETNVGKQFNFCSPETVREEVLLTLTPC

Human alphaherpesvirus 1 [5] = test: Antiviral activity against HSV-1 infected in African green monkey Vero cells assessed as reduction in virus induced gD protein expression at 2.5 uM by western blot analysis; format: functional, organism-based
Human alphaherpesvirus 2 [6] = test: Antiviral activity against HSV-2 infected in African green monkey Vero cells assessed as reduction in gD protein expression under co-treatment condition by western blot analysis; format: functional, organism-based
Human alphaherpesvirus 1 [7] = test: Antiviral activity against HSV-1 infected in African green monkey Vero cells assessed as inhibition of syncytium formation at 0.63 to 10 uM coinfected for 1 hr and measured after 24 hrs by H&E staining based optical microscopic analysis; format: functional, organism-based; details: dose 0.63-10 µM, time 25.0 hrs
Human alphaherpesvirus 2 [8] = test: Antiviral activity against HSV-2 infected in African green monkey Vero cells assessed as reduction in virus induced glycoprotein D gene expression measured after 48 hrs by qRT-PCR analysis; format: functional, organism-based; details: dose 0.63-10 µM
Human alphaherpesvirus 1 [9] = test: Antiviral activity against HSV-1 infected in African green monkey Vero cells assessed as reduction in plague formation measured after 48 hrs by crystal violet staining based plaque formation assay; format: functional, organism-based; details: dose 0.63-10 µM
Human alphaherpesvirus 2 [10] = test: Antiviral activity against HSV-2 infected in African green monkey Vero cells assessed as inhibition of syncytium formation at 0.63 to 10 uM coinfected for 1 hr and measured after 24 hrs by H&E staining based optical microscopic analysis; format: functional, organism-based; details: dose 0.63-10 µM, time 25.0 hrs
Human alphaherpesvirus 2 [11] = test: Antiviral activity against HSV-2 infected in African green monkey Vero cells assessed as reduction in virus induced gD protein expression at 1.3 uM by western blot analysis; format: functional, organism-based
Human alphaherpesvirus 1 [12] = test: Antiviral activity against HSV-1 infected in African green monkey Vero cells assessed as reduction in plague formation at 10 uM measured after 48 hrs by crystal violet staining based plaque formation assay; format: functional, organism-based
Human alphaherpesvirus 2 [13] = test: Antiviral activity against HSV-2 infected in African green monkey Vero cells assessed as reduction in plague formation measured after 48 hrs by crystal violet staining based plaque formation assay; format: functional, organism-based; details: dose 0.63-10 µM
HSV-1 = test: Selectivity index, ratio of CC50 for african green monkey Vero cells to EC50 for HSV-1 infected in African green monkey Vero cells; format: toxicity; details: HSV-1 infected Vero cells
[14] = Cytotoxicity against African green monkey Vero cells assessed as reduction in cell viability incubated for 3 days by MTT assay; format: toxicity, cell-based; details: chlorocebus sabaeus, time 3 day
Human alphaherpesvirus 2 [15] = test: Antiviral activity against HSV-2 infected in African green monkey Vero cells assessed as reduction in virus-induced cytopathic effect measured after 48 hrs by MTT assay; format: functional, organism-based; details: dose 0.63-10 µM
Human alphaherpesvirus 2 [16] = test: Antiviral activity against HSV-2 infected in African green monkey Vero cells assessed as reduction in plague formation at 5 uM measured after 48 hrs by crystal violet staining based plaque formation assay; format: functional, organism-based
Human alphaherpesvirus 2 [17] = test: Antiviral activity against HSV-2 infected in African green monkey Vero cells assessed as reduction in virus induced VP16 gene expression measured after 48 hrs by qRT-PCR analysis; format: functional, organism-based; details: dose 0.63-10 µM
HSV-2 = test: Selectivity index, ratio of CC50 for african green monkey Vero cells to EC50 for HSV-2 infected in African green monkey Vero cells; format: toxicity; details: HSV-2 infected Vero cells
Dengue virus = test: Antiviral activity against Dengue virus at 20 uM; format: functional, organism-based
Zika virus = test: Antiviral activity against Zika virus at 20 uM; format: functional, organism-based
Acetylcholinesterase = Acetylcholinesterase (Homo sapiens, UniProt P22303); test: Inhibition of AChE (unknown origin)
Human alphaherpesvirus 1 [18] = test: Antiviral activity against HSV-1 infected in African green monkey Vero cells assessed as reduction in virus induced glycoprotein D gene expression measured after 48 hrs by qRT-PCR analysis; format: functional, organism-based; details: dose 0.63-10 µM
Human alphaherpesvirus 1 [19] = test: Antiviral activity against HSV-1 infected in African green monkey Vero cells assessed as reduction in virus induced VP16 gene expression measured after 48 hrs by qRT-PCR analysis; format: functional, organism-based; details: dose 0.63-10 µM

Chain of Acetylcholinesterase (P22303 whole entry): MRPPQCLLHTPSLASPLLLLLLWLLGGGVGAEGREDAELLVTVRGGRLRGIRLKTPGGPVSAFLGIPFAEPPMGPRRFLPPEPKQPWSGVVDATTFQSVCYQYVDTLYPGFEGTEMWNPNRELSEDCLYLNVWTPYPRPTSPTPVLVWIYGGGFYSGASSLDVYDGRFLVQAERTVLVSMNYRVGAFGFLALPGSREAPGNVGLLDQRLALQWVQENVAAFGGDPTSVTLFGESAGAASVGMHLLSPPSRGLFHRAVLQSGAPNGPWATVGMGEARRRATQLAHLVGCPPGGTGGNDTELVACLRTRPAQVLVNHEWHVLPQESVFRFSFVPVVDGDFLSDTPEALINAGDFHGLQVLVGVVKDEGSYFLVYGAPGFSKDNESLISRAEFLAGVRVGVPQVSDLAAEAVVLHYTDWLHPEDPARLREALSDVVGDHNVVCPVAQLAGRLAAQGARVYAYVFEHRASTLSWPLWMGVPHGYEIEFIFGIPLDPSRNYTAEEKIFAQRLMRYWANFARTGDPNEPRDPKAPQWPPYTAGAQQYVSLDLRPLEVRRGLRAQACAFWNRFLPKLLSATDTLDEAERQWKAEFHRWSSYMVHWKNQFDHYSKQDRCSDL

Structure (SMILES)	EC50 (Human alphaherpesvirus 2 [1])	EC50 (Human alphaherpesvirus 1 [2])	selectivity ratio (HSV-1)	CC50 at 72 h [14]	selectivity ratio (HSV-2)	also measured
O=C1C(c2ccc(O)cc2)=CC(=O)c2c1oc1cc(O)c(O)cc21	> 20 µM	> 20 µM				
COc1c(-c2ccc(O)cc2)cc2oc3cc(O)c(O)cc3c2c1O	1.4 µM	2.2 µM	> 45.7	> 100 µM	> 73.5	Activity (Human alphaherpesvirus 1 [3]): Dose-Dependent Effect; inhibition [4]: inactive; Activity (Human alphaherpesvirus 1 [5]): Active; Activity (Human alphaherpesvirus 2 [6]): Active; Activity (Human alphaherpesvirus 1 [7]): Active; Activity (Human alphaherpesvirus 2 [8]): Dose-Dependent Effect; Activity (Human alphaherpesvirus 1 [9]): Active; Activity (Human alphaherpesvirus 2 [10]): Active; Activity (Human alphaherpesvirus 2 [11]): Active; Activity (Human alphaherpesvirus 1 [12]): Active; Activity (Human alphaherpesvirus 2 [13]): Active; Activity (Human alphaherpesvirus 2 [15]): Dose-Dependent Effect; Activity (Human alphaherpesvirus 2 [16]): Active; Activity (Human alphaherpesvirus 2 [17]): Dose-Dependent Effect; Activity (Dengue virus): inactive; Activity (Zika virus): inactive; IC50 (Acetylcholinesterase): 16 µM; Activity (Human alphaherpesvirus 1 [18]): Dose-Dependent Effect; Activity (Human alphaherpesvirus 1 [19]): Dose-Dependent Effect
COc1c(-c2ccc(O)cc2)cc(O)c2c1oc1cc(O)c(O)cc12	6.5 µM	4.1 µM	> 24.7	> 100 µM	> 15.4	
COc1c(-c2ccc(O)cc2)cc(O)c(-c2ccc(O)c(O)c2)c1O	2.3 µM	1.8 µM	> 54.4	> 100 µM	> 43.7	
Nc1nc2c(ncn2COCCO)c(=O)[nH]1 [ACYCLOVIR]	4.6 µM	3.6 µM	> 27.9	> 100 µM	> 21.9	
COC(=O)c1cc(O)cc(OC)c1C(=O)c1c(O)cc(C)cc1O [SULOCHRIN]	> 20 µM	> 20 µM				
O=c1cc(-c2ccc(O)c(O)c2)c(-c2ccc(O)c(O)c2)co1	8.5 µM	9.3 µM	> 10.8	> 100 µM	> 11.7	
COc1c(-c2ccc(O)c(O)c2)cc2oc3cc(O)c(O)cc3c2c1O	2.4 µM	4.3 µM	> 23	> 100 µM	> 41.5	
COc1c(-c2ccc(O)c(O)c2)cc(O)c(-c2ccc(O)c(O)c2)c1O	4.2 µM	3.8 µM	> 26.5	> 100 µM	> 23.8	
COc1c(-c2ccc(O)c(O)c2)cc(O)c2c1oc1cc(O)c(O)cc12 [6'-DESMETHYLCANDIDUSIN B]	2.1 µM	4.1 µM	> 24.4	> 100 µM	> 48.5	
